Reference: patent EP1132396A1, “PHYSIOLOGICALLY ACTIVE PEPTIDES” (KYOWA HAKKO KOGYO CO., LTD., priority 1998, dated 2000)
In brackets after ≈: the same amount, converted by molar mass. Residues, ends and D or L forms follow the SMILES beside them.

Key:
[1] = Water solubility of the peptides; format: physicochemical
Source text: The physicochemical properties of the peptides of the present invention obtained by the above-described process are shown below.

[2] = system: C3H/HeSlc mice; assay: Effect on hair growth of mouse (feed administration); format: in vivo; conditions: 20th day, control group subtracted
Protocol: A test of the effect on hair growth of mice was carried out referring to the method of Ogawa, et al. [The Journal of Dermatology, 10, 45-54 (1983)].
Nine-weeks-old male C3H/HeSlc mice whose hair cycle was in the telogen (Japan SLC) were divided into groups each consisting of 4 or 5 mice. Hair on the back of each mouse was carefully shaven using electric hair clippers and an electric shaver. Then, the mice were fed with the feeds prepared in Reference Examples 1-4.
The control group was fed only with a powder feed containing no peptide of the present invention (CE-2, Clea Japan, Inc.)
On the 20th day after the start of the test, the skin on the back of each mouse was cut off and photographed. Using an image processor (Avionics Co., Spicca II), the percentage of the hair-grown area to the total area of the skin on the back was calculated. The rate of the increased hair-grown area (%) was obtained by subtracting the hair-growing rate of the control group from the hair-growing rate of the group fed with a powder feed containing a peptide of the present invention.

[3] = system: human peripheral blood leukocytes; assay: Measurement of phagocytosis activity (fluorescence-labeled latex beads, flow cytometry); format: cell-based; conditions: rate based on the control (only PBS)
Protocol: To human peripheral blood was added physiological saline containing phosphate buffer (PBS), and the resulting mixture was centrifuged at 1000 rpm for 5 minutes to wash blood cells. Then, the blood cells were suspended in PBS to prepare a suspension having a density of 4 x 10^6 cells/ml. To 100 µl of the suspension was added 10 µl of a solution of a peptide in PBS, followed by incubation at 37°C for 10 minutes. Then, 10 µl of a suspension of 4 x 10^8/ml fluorescence-labeled latex beads opsonized with human peripheral blood was added thereto, and the resulting mixture was incubated for 5 minutes. To the mixture was added PBS containing ethylenediaminetetraacetic acid (EDTA) to stop the reaction. The resulting mixture was centrifuged to separate blood cells, and an ammonium chloride hemolyzing agent was added thereto for hemolysis to obtain leukocytes. After the obtained leukocytes were suspended in PBS containing EDTA, the resulting suspension was subjected to flow cytometry, and the number of cells which phagocytosed latex beads was calculated.
The results are expressed in terms of the rate based on the control (containing only PBS).

[4] = system: mouse hair follicle cells; assay: Cell growth-promoting effect on cultured mouse hair follicle cells (Neutral Red); format: cell-based, C3H mouse; conditions: 5 days culture
Protocol: Mouse hair follicle cells were separated and cultured according to a modification of the method of Tanigaki, et al. [Archives of Dermatological Research, 284, 290-296 (1992)].
The skin on the back of a 4-days-old C3H mouse (Nippon Charles River Co., Ltd.) was cut off and treated with Eagle's MEM (Eagle's Minimum Essential Medium, Nissui Pharmaceutical Co., Ltd.) containing 500 units/ml Dispase (Godo Shusei Co., Ltd.) and 5% fetal calf serum (FCS) at 4°C for 16 hours. Then, the epidermis was stripped from the skin section, and the obtained dermis layer was treated with DMEM (Dulbecco's Modified Eagle Medium) containing 0.25% Collagenase N-2 (Nitta Gelatin Co., Ltd.) and 10% FCS at 37°C for one hour to obtain a dermis suspension. The dermis suspension was filtered through a 212-µm nylon mesh (Nippon Rikagaku Kikai Co., Ltd.) and the filtrate was centrifuged at 1000 rpm for 5 minutes to obtain pellets containing hair follicle tissue. To the pellets was added calcium/magnesium-free PBS (Dulbecco's Phosphate-Buffered Saline) and the pellets were suspended therein using a pipette. The resulting suspension was allowed to stand for 15 minutes to precipitate the hair tissue. The same procedure as above (addition of calcium/magnesium-free PBS, preparation of a suspension using a pipette, and precipitation by standing for 15 minutes) was repeated three times using the obtained hair tissue. Then, the hair tissue was treated with an aqueous solution containing 0.1% ethylenediaminetetraacetic acid (EDTA) and 0.25% trypsin (Gibco) at 37°C for 5 minutes. To the resulting mixture was added DMEM containing 10% FCS to prepare a hair tissue cell suspension having a density of 3 x 10^5 cells/ml.
This hair tissue cell suspension was put into wells of a 24-well collagen-coated plate (Iwaki Glass Co., Ltd.) in an amount of 1 ml/well, followed by culturing in 5% CO2 at 37°C for 24 hours. After the completion of culturing, the medium was replaced by a medium prepared by adding to MCDB153 medium (Kyokuto Pharmaceutical Ind. Co., Ltd.) 5 mg/l bovine insulin (Sigma Chemical Co.), 5 µg/l mouse epidermal growth factor (EGF) (Takara Shuzo Co., Ltd.), 40 mg/l bovine pituitary extract (Kyokuto Pharmaceutical Ind. Co., Ltd.), 10 mg/l human transferrin (Sigma Chemical Co.), 0.4 mg/l hydrocortisone (Sigma Chemical Co.), 0.63 µg/l progesterone (Collaborative Research Co.), 14 mg/l O-phosphoethanolamine (Sigma Chemical Co.), 6.1 mg/l ethanolamine (Sigma Chemical Co.), 50 U/ml penicillin (Wako Pure Chemical Industries, Ltd.), 50 µg/ml streptomycin (Wako Pure Chemical Industries, Ltd.) and a dimethyl sulfoxide (DMSO) solution containing a peptide of the present invention (added in an amount of 1/100 by volume based on the medium), followed by further culturing in 5% CO2 at 37°C for 5 days. During the culturing, the medium was replaced with a fresh one every other day.
As a control, the cells were cultured in the same medium as above except that DMSO containing no peptide was added in an amount of 1/100 by volume based on the culture in place of DMSO containing the peptide.
The degree of cell growth was measured referring to the method using Neutral Red [Journal of Tissue Culture Method, 9, 1, 7-9 (1984)].
After the completion of culturing, the medium was sucked and the resulting cells were cultured in MCDB153 medium containing 50 mg/l Neutral Red (Sigma Chemical Co.) in 5% CO2 at 37°C for 3 hours. […] The degree of cell growth was determined by measuring the absorbance of the extract at 540 nm. […]

Row | SMILES | solubility [1] [µg/mL] | Phagocytosis activity ([3]; Concentration 1 µM) | Phagocytosis activity ([3]; Concentration 3 µM) | Phagocytosis activity ([3]; Concentration 10 µM) | other results
1 | CC[C@H](C)[C@H](NC(=O)[C@@H](N)CCSC)C(=O)N[C@@H](Cc1ccccc1)C(=O)O [MIF] (H-Met-Ile-Phe-OH) | 30000 (≈ 73300 µM) | – | – | – | Rate of increased hair-grown area (%) ([2]; 0.005% addition to feed): 26.8%
2 | CC[C@H](C)[C@H](NC(=O)[C@@H](N)CCSC)C(=O)N[C@@H](Cc1ccccc1)C(=O)N[C@@H](CC(C)C)C(=O)O [MIFL] (H-MIFL-OH) | 200 (≈ 383 µM) | 2.45 ± 0.17 | 3.06 ± 0.25 | – | Phagocytosis activity ([3]; Concentration 0.1 µM): 1.10 ± 0.09; Phagocytosis activity ([3]; Concentration 0.3 µM): 1.68 ± 0.08
3 | CC[C@H](C)[C@H](NC(=O)[C@@H](NC(=O)[C@@H](N)CCSC)[C@@H](C)CC)C(=O)N[C@@H](CC(C)C)C(=O)O [MIIL] (H-MIIL-OH) | 200 (≈ 409 µM) | 1.18 ± 0.07 | 1.62 ± 0.08 | 2.52 ± 0.18 | Phagocytosis activity ([3]; Concentration 30 µM): 2.95 ± 0.20
4 | CC[C@H](C)[C@H](NC(=O)[C@@H](N)CCSC)C(=O)N[C@@H](Cc1c[nH]c2ccccc12)C(=O)N[C@@H](CC(C)C)C(=O)O [MIWL] (H-MIWL-OH) | 200 (≈ 356 µM) | 3.11 ± 0.07 | 3.04 ± 0.50 | – | Rate of increased hair-grown area (%) ([2]; 0.05% addition to feed): 34.4%; Phagocytosis activity ([3]; Concentration 0.1 µM): 1.93 ± 0.18; Phagocytosis activity ([3]; Concentration 0.3 µM): 2.74 ± 0.25
5 | CC[C@H](C)[C@H](NC(=O)[C@@H](N)CCSC)C(=O)N[C@@H](Cc1ccc(O)cc1)C(=O)N[C@@H](CC(C)C)C(=O)O [MIYL] (H-MIYL-OH) | 300 (≈ 557 µM) | 1.32 ± 0.15 | 2.21 ± 0.25 | 3.12 ± 0.32 | –
6 | CC[C@H](C)[C@H](NC(=O)[C@@H](N)CCSC)C(=O)N[C@@H](Cc1c[nH]c2ccccc12)C(=O)O [MIW] (H-Met-Ile-Trp-OH) | 1000 (≈ 2230 µM) | – | – | – | Relative cell growth rate (%) (based on the control) ([4]; Concentration 1 µM): 97%; Relative cell growth rate (%) (based on the control) ([4]; Concentration 3 µM): 143%; Relative cell growth rate (%) (based on the control) ([4]; Concentration 10 µM): 130%; Relative cell growth rate (%) (based on the control) ([4]; Concentration 30 µM): 123%; Relative cell growth rate (%) (based on the control) ([4]; Concentration 100 µM): 119%; Rate of increased hair-grown area (%) ([2]; 0.005% addition to feed): 20.7%; Rate of increased hair-grown area (%) ([2]; 0.05% addition to feed): 23.7%
7 | CC[C@H](C)[C@H](NC(=O)[C@@H](N)CCSC)C(=O)N[C@@H](CC(C)C)C(=O)N[C@@H](CC(C)C)C(=O)O [MILL] (H-MILL-OH) | 200 (≈ 409 µM) | – | 1.28 ± 0.09 | 2.05 ± 0.08 | Phagocytosis activity ([3]; Concentration 30 µM): 2.97 ± 0.17
